Assay results: article PMC5478271, “Chemical structure-guided design of dynapyrazoles, cell-permeable dynein inhibitors with a unique mode of action” (eLife, 2017)

Target: T1, human cytoplasmic dynein 2 (GFP-dynein 2, amino acids 1091–4307) (Homo sapiens, UniProt Q8NCM8)
T1 construct: (AA 1091–4307, uniprot: Q8NCM8); protein A tag (followed by TEV-cleavable linker) (N, cleaved yes); made in house; host or cells: Sf9 insect cells (baculovirus)
Experiment: Microtubule gliding (motility) assay with GFP-dynein 2
Assay type: biochemical
Settings: for Velocity of dynein-2-driven microtubule gliding: 20 µM compound, solvent control 128 ± 14 nm/s, mean ± S.D.; for Velocity of dynein-2-driven microtubule gliding / IC50: 1 mM MgATP, 0.05 mg/mL casein, 2% DMSO; for IC50: read-out: IC50, inhibition of GFP-dynein-2-driven motility
Procedure: We purified an N-terminally GFP-tagged motor-domain construct of dynein 2 using an insect cell expression system ([Schmidt et al., 2015]). The GFP tag in this construct (GFP-dynein 2, amino acids 1091–4307) allowed the motor protein to be immobilized on passivated glass coverslips used in microtubule gliding assays. GFP-dynein 2 was obtained as a mono-disperse peak by gel filtration (Figure 2D and E). In the presence of ATP (1 mM), this protein moved microtubules with a velocity of 128 ± 14 nm/s (mean ± SD, Figure 2G and I).
Reaction setup: A coverslip-based motility assay was adapted from similar assays reported previously ([Firestone et al., 2012]; [Schmidt et al., 2015]). A flow chamber assembled on a pre-cleaned microscope coverslide (3–5 µL chamber volume) was hydrated with buffer A (25 mM PIPES, 30 mM KCl, 5 mM MgCl2, 1 mM EGTA, 0.01% Triton X-100, 1 mM DTT, 20 µM taxol, pH 7.0 with KOH). Anti-GFP antibody (0.4 mg/mL, affinity purified rabbit antibody) was flowed into the chamber and allowed to adhere non-specifically to the glass for 20 s. The surface was blocked using 0.5 mg/mL α-casein in buffer A. Excess protein was then washed away with buffer A. GFP-dynein motor domain was diluted in buffer A supplemented with 1 mM DTT and 0.1 mM ATP (2 mM DTT final; GFP-dynein 2 diluted to: 180 nM; GFP-dynein 1 diluted to: 60 nM), flowed into the chamber and allowed to bind for 20 s. Excess protein was washed away with buffer A. Reaction mix (25 mM PIPES, 90 mM KCl, 6 mM MgCl2, 1 mM EGTA, 0.01% Triton X-100, 3 mM DTT, 20 µM taxol, 1 mM ATP, 1x oxygen scavenging system components [4.5 mg/mL glucose, 35 µg/mL catalase, 200 µg/mL glucose oxidase], 2% final DMSO [v/v] with compounds at appropriate concentrations, 0.05 mg/mL α-casein, microtubules [rhodamine labeled, purified from bovine brain, GMP-CPP and Taxol-stabilized], pH 7.0 with KOH) was flowed into the chamber using ~4 chamber volumes. For experiments shown in Figure 4—figure supplement 1, α-casein concentration in reaction mix was 0.5 mg/mL and all other parameters were held constant.
For reversibility experiments, motility in the presence of 5 µM 8 was observed as above, and upon completion of imaging, the chamber, fresh buffer A supplemented with 1 mM ATP was flowed into the chamber and incubated for 1 min; this wash and incubation cycle was repeated twice. Reaction mix containing DMSO (no compound) was flowed into the chamber using ~4 chamber volumes. The chamber was sealed with valap and returned to the microscope.
Microscopy conditions: Following addition of reaction mix, microtubules were allowed to bind for 5 min before imaging. For reversibility experiments, microtubules were allowed to bind for 10 min before imaging. Videos were taken on a Zeiss Axiovert 200M wide-field microscope equipped with a Zeiss 100x/1.45 NA α-Plan-Fluar objective. Data were captured with an EM-CCD camera (iXon DU-897, Andor Technology) with a 0.2 s exposure time and frame rate of 0.25–0.5/second. Four 10–20 s videos were captured per experimental condition. Velocities were measured using the kymograph tool in FIJI ([Schindelin et al., 2012]). Data analysis is discussed below under ‘General data analysis procedures.’
Microtubule velocity measurements: the tracks of microtubules were traced and converted to kymographs (x axis-displacement, y axis-time) using the kymograph function of FIJI (RRID: SCR_002285). The angle formed between an edge of a microtubule and the horizontal was measured. This angle, θ, was converted into velocity using the following relationship: velocity = 1/|tangent(θ)| * (unit pixel distance)/(time interval between frames).
The calibrated pixel distance was 0.152 µm and the time interval between frames was either 2 or 4 s. The velocities of at least seven microtubules were measured per field of view, if sufficient tracks could be found. In cases where fewer than seven microtubules were found in a field of view, velocities of all microtubules on the coverslip were measured. […]

T1 sequence (Q8NCM8 1091-4307): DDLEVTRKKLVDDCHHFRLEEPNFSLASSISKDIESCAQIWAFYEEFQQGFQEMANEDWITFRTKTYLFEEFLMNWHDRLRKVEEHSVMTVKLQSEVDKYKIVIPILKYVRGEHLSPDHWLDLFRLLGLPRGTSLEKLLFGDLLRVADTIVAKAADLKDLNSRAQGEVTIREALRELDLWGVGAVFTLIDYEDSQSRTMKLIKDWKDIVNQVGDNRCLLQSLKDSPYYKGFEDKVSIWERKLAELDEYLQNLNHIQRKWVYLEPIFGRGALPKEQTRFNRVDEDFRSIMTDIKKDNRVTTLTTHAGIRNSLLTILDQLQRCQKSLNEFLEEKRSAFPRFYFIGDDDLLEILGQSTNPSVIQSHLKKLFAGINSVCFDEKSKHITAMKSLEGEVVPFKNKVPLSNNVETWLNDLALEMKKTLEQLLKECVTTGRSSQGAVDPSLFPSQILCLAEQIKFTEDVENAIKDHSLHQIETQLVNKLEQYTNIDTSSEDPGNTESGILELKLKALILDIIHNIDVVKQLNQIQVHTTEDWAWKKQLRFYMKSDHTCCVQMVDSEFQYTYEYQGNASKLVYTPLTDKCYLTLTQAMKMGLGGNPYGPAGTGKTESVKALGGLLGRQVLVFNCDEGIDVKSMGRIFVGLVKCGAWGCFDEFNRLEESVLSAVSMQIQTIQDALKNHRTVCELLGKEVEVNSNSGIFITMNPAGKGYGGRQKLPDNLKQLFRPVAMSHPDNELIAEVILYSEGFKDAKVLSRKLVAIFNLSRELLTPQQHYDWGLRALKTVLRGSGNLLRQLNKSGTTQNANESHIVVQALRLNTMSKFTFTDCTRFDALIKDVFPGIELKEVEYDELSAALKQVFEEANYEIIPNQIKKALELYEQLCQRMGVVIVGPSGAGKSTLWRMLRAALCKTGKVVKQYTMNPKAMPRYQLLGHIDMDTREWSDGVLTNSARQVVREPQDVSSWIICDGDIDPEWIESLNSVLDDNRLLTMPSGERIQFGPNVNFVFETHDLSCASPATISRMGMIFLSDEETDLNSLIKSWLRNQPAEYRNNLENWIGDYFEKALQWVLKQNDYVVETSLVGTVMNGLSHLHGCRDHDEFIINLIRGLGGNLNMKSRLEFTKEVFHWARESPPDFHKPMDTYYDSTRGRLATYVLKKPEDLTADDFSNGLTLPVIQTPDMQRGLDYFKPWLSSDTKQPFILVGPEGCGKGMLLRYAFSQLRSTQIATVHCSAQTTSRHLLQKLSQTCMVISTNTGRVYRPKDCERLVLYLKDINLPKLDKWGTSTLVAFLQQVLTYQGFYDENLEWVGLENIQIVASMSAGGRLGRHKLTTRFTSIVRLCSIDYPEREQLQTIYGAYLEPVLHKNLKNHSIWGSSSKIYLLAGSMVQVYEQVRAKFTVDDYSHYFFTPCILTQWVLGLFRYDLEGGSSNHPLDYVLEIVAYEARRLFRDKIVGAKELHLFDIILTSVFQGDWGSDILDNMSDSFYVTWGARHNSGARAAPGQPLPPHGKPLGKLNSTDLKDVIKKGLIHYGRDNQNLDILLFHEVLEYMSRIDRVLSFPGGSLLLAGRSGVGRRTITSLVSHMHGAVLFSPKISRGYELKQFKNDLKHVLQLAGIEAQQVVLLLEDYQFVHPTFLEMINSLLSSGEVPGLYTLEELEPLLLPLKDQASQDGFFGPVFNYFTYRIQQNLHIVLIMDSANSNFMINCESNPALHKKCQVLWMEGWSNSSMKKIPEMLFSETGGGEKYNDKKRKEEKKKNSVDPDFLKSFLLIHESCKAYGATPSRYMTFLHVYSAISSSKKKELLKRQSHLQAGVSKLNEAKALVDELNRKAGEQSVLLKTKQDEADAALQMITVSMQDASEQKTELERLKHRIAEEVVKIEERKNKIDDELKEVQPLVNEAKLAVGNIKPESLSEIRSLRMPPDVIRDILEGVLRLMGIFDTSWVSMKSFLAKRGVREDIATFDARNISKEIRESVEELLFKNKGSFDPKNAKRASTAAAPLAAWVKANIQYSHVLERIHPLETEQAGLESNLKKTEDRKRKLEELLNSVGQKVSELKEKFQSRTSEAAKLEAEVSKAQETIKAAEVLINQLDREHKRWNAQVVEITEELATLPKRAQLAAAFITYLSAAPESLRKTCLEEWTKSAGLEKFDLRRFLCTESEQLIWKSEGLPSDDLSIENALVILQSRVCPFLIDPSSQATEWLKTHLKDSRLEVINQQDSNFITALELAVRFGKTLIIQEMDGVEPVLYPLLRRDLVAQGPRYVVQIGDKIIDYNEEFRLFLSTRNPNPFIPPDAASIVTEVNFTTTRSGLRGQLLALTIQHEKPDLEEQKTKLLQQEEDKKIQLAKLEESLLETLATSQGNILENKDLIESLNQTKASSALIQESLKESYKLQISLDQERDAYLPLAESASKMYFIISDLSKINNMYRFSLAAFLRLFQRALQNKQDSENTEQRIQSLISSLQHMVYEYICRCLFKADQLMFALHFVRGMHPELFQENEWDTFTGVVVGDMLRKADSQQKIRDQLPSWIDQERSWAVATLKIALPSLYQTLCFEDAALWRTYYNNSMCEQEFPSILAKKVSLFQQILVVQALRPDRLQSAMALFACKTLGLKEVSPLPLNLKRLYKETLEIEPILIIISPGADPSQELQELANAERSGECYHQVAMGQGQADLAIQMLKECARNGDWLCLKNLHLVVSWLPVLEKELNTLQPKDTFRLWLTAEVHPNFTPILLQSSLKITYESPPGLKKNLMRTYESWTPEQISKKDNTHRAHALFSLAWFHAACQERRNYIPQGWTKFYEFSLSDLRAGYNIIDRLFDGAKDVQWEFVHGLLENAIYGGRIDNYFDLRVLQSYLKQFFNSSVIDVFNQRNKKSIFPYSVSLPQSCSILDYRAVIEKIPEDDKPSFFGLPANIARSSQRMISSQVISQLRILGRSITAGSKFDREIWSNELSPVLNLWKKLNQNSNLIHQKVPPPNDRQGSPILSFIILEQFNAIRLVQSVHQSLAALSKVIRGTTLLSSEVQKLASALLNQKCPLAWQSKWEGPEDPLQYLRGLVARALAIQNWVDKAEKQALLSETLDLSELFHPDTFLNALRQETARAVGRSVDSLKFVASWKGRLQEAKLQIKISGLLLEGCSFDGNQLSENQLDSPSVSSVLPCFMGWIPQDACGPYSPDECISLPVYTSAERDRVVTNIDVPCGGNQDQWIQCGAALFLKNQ

**Q.** With N#Cc1c(-c2ccc(Cl)cc2Cl)nn2c1[nH]c(=O)c1ccccc12 [Compound 4, 2-(2,4-dichlorophenyl)-5-oxo-4H-pyrazolo[1,5-a]quinazoline-3-carbonitrile] as the molecule, how does the “Velocity of dynein-2-driven microtubule gliding” value (“Velocity” for short) read?
**A.** Its value is “comparable to that observed in the presence of ciliobrevin D”.

**Q.** Which “Velocity” value does the source give for COc1ccc2c(c1)c(=O)[nH]c1c(C#N)c(C3(c4ccc(Cl)cc4)CC3)nn12 [Compound 7, 2-[1-(4-chlorophenyl)cyclopropyl]-7-methoxy-5-oxo-4H-pyrazolo[1,5-a]quinazoline-3-carbonitrile] here?
**A.** Its value is 128 ± 21 nm/s.

**Q.** For N#Cc1c(C2(c3ccc(Cl)cc3)CC2)nn2c1[nH]c(=O)c1ccccc12 [Compound 5, 2-[1-(4-chlorophenyl)cyclopropyl]-5-oxo-4H-pyrazolo[1,5-a]quinazoline-3-carbonitrile], which “Velocity” value is on record?
**A.** Its value is 58 ± 14 nm/s.

**Q.** For N#C/C(C(=O)c1ccc(Cl)cc1Cl)=C1\NC(=O)c2cc(C(F)(F)F)ccc2N1 [Compound 9, (E)-3-(2,4-dichlorophenyl)-3-oxo-2-(4-oxo-6-(trifluoromethyl)-3,4-dihydroquinazolin-2(1H)-ylidene)propanenitrile], which IC50 is on record?
**A.** The IC50 was 17.7 µM.

**Q.** How did the “Velocity” value turn out when O=c1[nH]c2cc(-c3ccc(Cl)cc3Cl)nn2c2ccccc12 [Compound 3, 2-(2,4-dichlorophenyl)-4H-pyrazolo[1,5-a]quinazolin-5-one] was run?
**A.** Its value is “comparable to that observed in the presence of ciliobrevin D”.

**Q.** How did the “Velocity” value turn out when N#Cc1c(-c2ccc(Cl)cc2Cl)cn2c1[nH]c(=O)c1ccccc12 [Compound 2, 2-(2,4-dichlorophenyl)-5-oxo-4H-pyrrolo[1,2-a]quinazoline-3-carbonitrile] was run?
**A.** Its value is 126 ± 17 nm/s.

**Q.** For N#Cc1c(C2(c3ccc(Cl)cc3)CC2)nn2c1[nH]c(=O)c1cc(C(F)(F)F)ccc12 [Compound 6, 2-(1-(4-chlorophenyl)cyclopropyl)-5-oxo-7-(trifluoromethyl)-4,5-dihydropyrazolo[1,5-a]quinazoline-3-carbonitrile], which “Velocity” value is on record?
**A.** The value was 6 ± 2 nm/s.

**Q.** And the IC50?
**A.** Its IC50 is 2.9 ± 0.6 µM.

**Q.** And the “Improvement in potency of dynein 2 inhibition by cyclization (compound 6 versus compound 9)” value (microtubule gliding assay)?
**A.** Its value is ~ 6 fold.
